From ChEMBL document CHEMBL2311451, “Discovery of a selective M₄ positive allosteric modulator based on the 3-amino-thieno[2,3-b]pyridine-2-carboxamide scaffold: development of ML253, a potent and brain penetrant compound that is active in a preclinical model of schizophrenia” (Bioorg Med Chem Lett, 2013)
Blank lines part the entries; values can stand above or below the compound they belong to.

Columns and labels:
[1] = biological target: T1, Muscarinic acetylcholine receptor M4 (Homo sapiens, UniProt P08173); test: Positive allosteric modulation of human muscarinic M4 receptor expressed in CHO-K1 cells assessed as leftward shift in acetylcholine response treated for 144 secs prior to acetylcholine addition measured for 5 mins by Fluo-4-AM based calcium mobilization assay; assay type: functional, cell-based
T1 sequence (P08173 whole entry): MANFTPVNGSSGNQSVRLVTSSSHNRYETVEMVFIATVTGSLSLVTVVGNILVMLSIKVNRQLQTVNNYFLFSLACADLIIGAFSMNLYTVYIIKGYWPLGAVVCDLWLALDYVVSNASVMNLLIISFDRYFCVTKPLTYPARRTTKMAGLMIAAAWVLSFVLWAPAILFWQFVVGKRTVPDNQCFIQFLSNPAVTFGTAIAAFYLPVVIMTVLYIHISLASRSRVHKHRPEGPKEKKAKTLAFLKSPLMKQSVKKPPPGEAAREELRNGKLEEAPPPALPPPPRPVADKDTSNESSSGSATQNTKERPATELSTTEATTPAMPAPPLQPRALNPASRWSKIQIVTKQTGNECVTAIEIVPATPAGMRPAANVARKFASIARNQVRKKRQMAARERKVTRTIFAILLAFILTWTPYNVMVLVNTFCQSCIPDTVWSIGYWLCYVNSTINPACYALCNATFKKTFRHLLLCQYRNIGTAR

[2] = biological target: T2, Muscarinic acetylcholine receptor M4 (Homo sapiens) (UniProt P08173); test: Positive allosteric modulation of human muscarinic M4 receptor expressed in CHO-K1 cells assessed as leftward shift in acetylcholine response treated for 144 secs prior to acetylcholine addition measured for 5 mins by Fluo-4-AM based calcium mobilization assay relative to control; assay type: functional, cell-based
T2 sequence (whole entry): T1 sequence (P08173 whole entry)

[3] = biological target: T2, Muscarinic acetylcholine receptor M4 (Homo sapiens); test: Positive allosteric modulation of human muscarinic M4 receptor expressed in CHO-K1 cells assessed as leftward shift in acetylcholine response at 10 uM treated for 144 secs prior to acetylcholine addition measured for 5 mins by Fluo-4-AM based calcium mobilization assay relative to acetylcholine; assay type: functional, cell-based
Plasma = test: Fraction unbound in rat plasma; assay type: ADME, cell-free
[4] = Mean residence time in rat at 1 mg/kg, iv; assay type: ADME, organism-based; design: dose 1 mg/kg, route intravenous; conditions: in vivo
Rattus norvegicus [5] = test: Antipsychotic activity in ip dosed Sprague-Dawley rat assessed as reversal of amphetamine-induced hyperlocomotion after 90 mins; assay type: functional, organism-based
[6] = biological target: Muscarinic acetylcholine receptor M2 (Rattus norvegicus, UniProt P10980); test: Positive allosteric modulation of rat muscarinic M2 receptor assessed as acetylcholine response
[7] = AUC in rat at 1 mg/kg, iv; assay type: ADME, organism-based; design: dose 1 mg/kg, route intravenous; conditions: plasma
[8] = biological target: Muscarinic acetylcholine receptor M1 (Rattus norvegicus, UniProt P08482); test: Positive allosteric modulation of rat muscarinic M1 receptor assessed as acetylcholine response
Rattus norvegicus [9] = test: Antipsychotic activity in Sprague-Dawley rat assessed as reversal of amphetamine-induced hyperlocomotion at 30 mg/kg, ip after 90 mins; assay type: functional; conditions: route intraperitoneal
[10] = Half life in rat at 1 mg/kg, iv; assay type: ADME, organism-based; design: dose 1 mg/kg, route intravenous; conditions: in vivo
[11] = Systemic plasma AUC in rat at 10 mg/kg, ip up to 6 hrs
[12] = Volume of distribution at steady state in rat at 1 mg/kg, iv; assay type: ADME, organism-based; design: dose 1 mg/kg, route intravenous; conditions: in vivo, read-out: Vdss
[13] = Clearance in rat at 1 mg/kg, iv; assay type: ADME, organism-based; design: dose 1 mg/kg, route intravenous; conditions: in vivo
[14] = biological target: T3, Muscarinic acetylcholine receptor M4 (Rattus norvegicus, UniProt P08485); test: Positive allosteric modulation of rat muscarinic M4 receptor assessed as acetylcholine response
T3 sequence (P08485 whole entry): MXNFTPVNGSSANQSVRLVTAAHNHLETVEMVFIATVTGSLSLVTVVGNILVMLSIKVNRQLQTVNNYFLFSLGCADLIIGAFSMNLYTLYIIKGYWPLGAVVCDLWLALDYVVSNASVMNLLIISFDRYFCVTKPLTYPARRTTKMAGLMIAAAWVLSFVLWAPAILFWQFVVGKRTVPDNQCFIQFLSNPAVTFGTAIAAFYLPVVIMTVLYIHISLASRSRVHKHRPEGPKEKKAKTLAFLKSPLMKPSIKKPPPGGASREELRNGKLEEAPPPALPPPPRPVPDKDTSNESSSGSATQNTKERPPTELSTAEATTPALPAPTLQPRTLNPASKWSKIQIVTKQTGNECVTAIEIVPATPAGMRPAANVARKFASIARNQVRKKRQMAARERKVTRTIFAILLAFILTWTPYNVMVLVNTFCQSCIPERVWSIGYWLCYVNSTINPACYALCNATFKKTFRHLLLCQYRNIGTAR

Brain = test: Drug level in rat brain at 10 mg/kg, ip up to 6 hrs; assay type: ADME, organism-based; design: dose 10 mg/kg, route intraperitoneal; conditions: in vivo
[15] = biological target: Muscarinic acetylcholine receptor M5 (Homo sapiens, UniProt P08912); test: Positive allosteric modulation of human muscarinic M5 receptor expressed in CHO-K1 cells assessed as leftward shift in acetylcholine response treated for 144 secs prior to acetylcholine addition measured for 5 mins by Fluo-4-AM based calcium mobilization assay; assay type: functional, cell-based
[16] = biological target: Sodium-dependent dopamine transporter (Homo sapiens) (UniProt Q01959); test: Binding affinity to human DAT at 10 uM by radioligand binding assay
[17] = biological target: Muscarinic acetylcholine receptor M1 (Homo sapiens, UniProt P11229); test: Positive allosteric modulation of human muscarinic M1 receptor expressed in CHO-K1 cells assessed as leftward shift in acetylcholine response treated for 144 secs prior to acetylcholine addition measured for 5 mins by Fluo-4-AM based calcium mobilization assay; assay type: functional, cell-based
[18] = biological target: Muscarinic acetylcholine receptor M3 (Homo sapiens, UniProt P20309); test: Positive allosteric modulation of human muscarinic M3 receptor expressed in CHO-K1 cells assessed as leftward shift in acetylcholine response treated for 144 secs prior to acetylcholine addition measured for 5 mins by Fluo-4-AM based calcium mobilization assay; assay type: functional, cell-based
Rattus norvegicus [19] = test: Antipsychotic activity in Sprague-Dawley rat assessed as reversal of amphetamine-induced hyperlocomotion at 56.6 mg/kg, ip after 90 mins; assay type: functional; conditions: route intraperitoneal
[20] = biological target: Muscarinic acetylcholine receptor M3 (Rattus norvegicus, UniProt P08483); test: Positive allosteric modulation of rat muscarinic M3 receptor assessed as acetylcholine response
[21] = biological target: Muscarinic acetylcholine receptor M5 (Rattus norvegicus, UniProt P08911); test: Positive allosteric modulation of rat muscarinic M5 receptor assessed as acetylcholine response
Rattus norvegicus [22] = species: Rattus norvegicus; test: Binding affinity to rat GABAA receptor at 10 uM by radioligand binding assay
Rattus norvegicus [23] = test: Antipsychotic activity in Sprague-Dawley rat assessed as reversal of amphetamine-induced hyperlocomotion at 10 mg/kg, ip after 90 mins; assay type: functional; conditions: route intraperitoneal
Rattus norvegicus [24] = test: Antipsychotic activity in Sprague-Dawley rat assessed as reversal of amphetamine-induced hyperlocomotion at 3 mg/kg, ip after 90 mins; assay type: functional; conditions: route intraperitoneal
[25] = biological target: Muscarinic acetylcholine receptor M4 (Rattus norvegicus) (UniProt P08485); test: Positive allosteric modulation of rat muscarinic M4 receptor assessed as acetylcholine response at 10 uM relative to acetylcholine
Rattus norvegicus [26] = test: Antipsychotic activity in Sprague-Dawley rat assessed as reversal of amphetamine-induced hyperlocomotion at 100 mg/kg, ip after 90 mins; assay type: functional; conditions: route intraperitoneal
[27] = biological target: Muscarinic acetylcholine receptor M2 (Homo sapiens, UniProt P08172); test: Positive allosteric modulation of human muscarinic M2 receptor expressed in CHO-K1 cells assessed as leftward shift in acetylcholine response treated for 144 secs prior to acetylcholine addition measured for 5 mins by Fluo-4-AM based calcium mobilization assay; assay type: functional, cell-based
Sequence of Muscarinic acetylcholine receptor M2 (Homo sapiens, UniProt P08172) (P08172 whole entry): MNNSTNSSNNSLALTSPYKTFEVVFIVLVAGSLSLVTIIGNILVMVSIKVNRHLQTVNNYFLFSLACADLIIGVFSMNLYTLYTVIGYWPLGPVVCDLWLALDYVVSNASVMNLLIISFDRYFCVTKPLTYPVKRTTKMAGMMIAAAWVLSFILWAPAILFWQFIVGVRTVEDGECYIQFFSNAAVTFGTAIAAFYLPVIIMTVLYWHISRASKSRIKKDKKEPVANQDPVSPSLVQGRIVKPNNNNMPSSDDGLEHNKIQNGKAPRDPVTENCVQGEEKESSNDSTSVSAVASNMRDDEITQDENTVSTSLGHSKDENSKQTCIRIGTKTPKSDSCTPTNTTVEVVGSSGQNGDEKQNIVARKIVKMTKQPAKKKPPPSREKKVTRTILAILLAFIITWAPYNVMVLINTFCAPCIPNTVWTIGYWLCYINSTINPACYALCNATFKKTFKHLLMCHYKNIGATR

Sequence of Muscarinic acetylcholine receptor M1 (Rattus norvegicus, UniProt P08482) (P08482 whole entry): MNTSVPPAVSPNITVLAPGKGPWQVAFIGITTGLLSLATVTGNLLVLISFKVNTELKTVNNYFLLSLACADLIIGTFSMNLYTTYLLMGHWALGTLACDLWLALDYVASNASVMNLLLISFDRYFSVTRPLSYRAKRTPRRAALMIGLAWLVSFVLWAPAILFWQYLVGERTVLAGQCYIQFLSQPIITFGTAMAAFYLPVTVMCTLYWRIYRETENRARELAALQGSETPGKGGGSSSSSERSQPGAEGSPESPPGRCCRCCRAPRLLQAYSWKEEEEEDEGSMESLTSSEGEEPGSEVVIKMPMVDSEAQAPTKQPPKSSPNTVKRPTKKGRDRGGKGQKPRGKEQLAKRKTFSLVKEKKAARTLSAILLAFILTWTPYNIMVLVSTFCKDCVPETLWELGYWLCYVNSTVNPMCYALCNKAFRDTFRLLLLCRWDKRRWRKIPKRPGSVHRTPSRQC
Sequence of Muscarinic acetylcholine receptor M2 (Rattus norvegicus, UniProt P10980) (P10980 whole entry): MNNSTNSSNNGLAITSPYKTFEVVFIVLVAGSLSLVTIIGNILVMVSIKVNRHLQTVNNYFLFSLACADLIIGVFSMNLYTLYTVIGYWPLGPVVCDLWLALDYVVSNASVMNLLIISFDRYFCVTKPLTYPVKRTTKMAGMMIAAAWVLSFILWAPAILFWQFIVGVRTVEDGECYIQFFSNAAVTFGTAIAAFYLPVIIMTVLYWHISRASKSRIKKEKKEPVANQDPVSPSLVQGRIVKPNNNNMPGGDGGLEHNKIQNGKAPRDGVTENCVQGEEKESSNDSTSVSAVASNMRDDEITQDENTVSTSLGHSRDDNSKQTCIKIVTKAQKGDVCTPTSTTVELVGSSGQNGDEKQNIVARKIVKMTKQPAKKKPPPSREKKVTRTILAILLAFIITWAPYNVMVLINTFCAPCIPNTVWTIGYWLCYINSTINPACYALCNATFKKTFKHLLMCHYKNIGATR
Sequence of Muscarinic acetylcholine receptor M5 (Rattus norvegicus, UniProt P08911) (P08911 whole entry): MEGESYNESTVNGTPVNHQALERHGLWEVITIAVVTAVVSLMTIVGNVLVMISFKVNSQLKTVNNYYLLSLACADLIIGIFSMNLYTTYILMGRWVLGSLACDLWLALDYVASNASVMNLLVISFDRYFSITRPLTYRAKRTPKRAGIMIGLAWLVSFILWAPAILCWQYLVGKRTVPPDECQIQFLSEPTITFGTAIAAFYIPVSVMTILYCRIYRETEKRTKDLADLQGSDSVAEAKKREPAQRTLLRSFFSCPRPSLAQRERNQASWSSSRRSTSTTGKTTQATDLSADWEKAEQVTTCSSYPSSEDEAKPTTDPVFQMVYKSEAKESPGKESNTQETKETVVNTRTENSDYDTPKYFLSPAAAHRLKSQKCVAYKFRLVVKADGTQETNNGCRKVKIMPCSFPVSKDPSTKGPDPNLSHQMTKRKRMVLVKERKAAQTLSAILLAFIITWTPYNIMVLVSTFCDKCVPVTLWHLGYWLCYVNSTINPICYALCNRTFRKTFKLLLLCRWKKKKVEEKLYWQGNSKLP
Sequence of Muscarinic acetylcholine receptor M3 (Rattus norvegicus, UniProt P08483) (P08483 whole entry): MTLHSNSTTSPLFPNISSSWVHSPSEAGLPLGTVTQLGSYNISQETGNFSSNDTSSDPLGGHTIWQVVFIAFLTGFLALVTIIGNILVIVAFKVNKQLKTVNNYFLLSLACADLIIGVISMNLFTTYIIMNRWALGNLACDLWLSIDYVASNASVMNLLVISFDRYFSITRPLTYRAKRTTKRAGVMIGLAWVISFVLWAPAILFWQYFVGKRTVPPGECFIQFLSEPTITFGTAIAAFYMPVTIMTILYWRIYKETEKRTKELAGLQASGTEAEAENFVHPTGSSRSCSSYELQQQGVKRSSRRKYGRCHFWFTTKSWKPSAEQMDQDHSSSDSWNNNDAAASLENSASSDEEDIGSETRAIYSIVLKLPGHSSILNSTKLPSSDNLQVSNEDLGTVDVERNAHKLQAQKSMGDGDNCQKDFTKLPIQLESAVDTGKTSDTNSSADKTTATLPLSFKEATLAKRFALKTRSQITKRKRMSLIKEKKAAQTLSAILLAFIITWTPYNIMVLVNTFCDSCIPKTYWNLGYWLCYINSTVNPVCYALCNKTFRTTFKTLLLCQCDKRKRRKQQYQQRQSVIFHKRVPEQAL
Sequence of Muscarinic acetylcholine receptor M3 (Homo sapiens, UniProt P20309) (P20309 whole entry): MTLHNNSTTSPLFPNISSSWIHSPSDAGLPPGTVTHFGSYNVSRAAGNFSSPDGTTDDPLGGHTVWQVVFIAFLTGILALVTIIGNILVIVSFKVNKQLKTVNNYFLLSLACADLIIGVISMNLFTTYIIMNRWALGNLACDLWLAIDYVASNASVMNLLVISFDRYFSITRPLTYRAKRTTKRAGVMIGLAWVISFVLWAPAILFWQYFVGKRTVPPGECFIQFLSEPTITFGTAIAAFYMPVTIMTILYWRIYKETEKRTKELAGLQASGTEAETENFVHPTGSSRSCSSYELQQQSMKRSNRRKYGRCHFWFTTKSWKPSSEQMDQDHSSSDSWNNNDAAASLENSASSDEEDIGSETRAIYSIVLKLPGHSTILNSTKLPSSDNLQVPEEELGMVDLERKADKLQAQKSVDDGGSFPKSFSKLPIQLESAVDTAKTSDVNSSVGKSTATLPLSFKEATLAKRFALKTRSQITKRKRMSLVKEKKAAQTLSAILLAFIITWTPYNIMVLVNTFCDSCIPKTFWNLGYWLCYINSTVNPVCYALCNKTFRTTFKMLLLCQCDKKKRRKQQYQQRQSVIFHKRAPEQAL
Sequence of Muscarinic acetylcholine receptor M5 (Homo sapiens, UniProt P08912) (P08912 whole entry): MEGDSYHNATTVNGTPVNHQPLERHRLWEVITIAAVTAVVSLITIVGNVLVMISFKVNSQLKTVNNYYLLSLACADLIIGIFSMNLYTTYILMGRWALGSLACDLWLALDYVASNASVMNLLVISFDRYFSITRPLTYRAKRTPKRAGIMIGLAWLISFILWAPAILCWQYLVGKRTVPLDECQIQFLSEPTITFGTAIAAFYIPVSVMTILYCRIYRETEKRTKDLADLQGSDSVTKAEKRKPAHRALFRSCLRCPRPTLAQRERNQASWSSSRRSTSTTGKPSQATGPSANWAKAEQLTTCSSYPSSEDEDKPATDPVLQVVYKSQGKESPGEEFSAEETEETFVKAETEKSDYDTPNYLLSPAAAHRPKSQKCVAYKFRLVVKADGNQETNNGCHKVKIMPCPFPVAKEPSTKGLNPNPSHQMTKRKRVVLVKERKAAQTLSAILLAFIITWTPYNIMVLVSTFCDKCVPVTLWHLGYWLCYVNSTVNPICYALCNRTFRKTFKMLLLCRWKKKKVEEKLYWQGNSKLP
Sequence of Sodium-dependent dopamine transporter (Homo sapiens) (Q01959 whole entry): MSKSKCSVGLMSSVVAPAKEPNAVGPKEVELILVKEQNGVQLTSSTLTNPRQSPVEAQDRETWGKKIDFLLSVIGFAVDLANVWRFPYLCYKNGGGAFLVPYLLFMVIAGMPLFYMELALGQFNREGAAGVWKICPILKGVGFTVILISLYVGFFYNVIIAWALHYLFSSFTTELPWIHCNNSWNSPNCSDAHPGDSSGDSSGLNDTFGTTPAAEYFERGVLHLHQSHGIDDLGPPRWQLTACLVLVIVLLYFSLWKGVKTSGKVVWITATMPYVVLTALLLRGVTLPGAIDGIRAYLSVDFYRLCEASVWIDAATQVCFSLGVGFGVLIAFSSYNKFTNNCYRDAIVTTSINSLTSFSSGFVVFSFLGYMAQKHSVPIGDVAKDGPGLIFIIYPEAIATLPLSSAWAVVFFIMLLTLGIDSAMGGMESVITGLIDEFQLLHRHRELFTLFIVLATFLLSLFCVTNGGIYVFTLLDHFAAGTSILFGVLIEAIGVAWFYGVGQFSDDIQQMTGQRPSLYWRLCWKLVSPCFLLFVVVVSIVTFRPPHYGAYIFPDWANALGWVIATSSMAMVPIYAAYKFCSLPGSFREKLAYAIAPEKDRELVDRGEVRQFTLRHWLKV
Sequence of Muscarinic acetylcholine receptor M1 (Homo sapiens, UniProt P11229) (P11229 whole entry): as the sequence (P08482 whole entry) above, with V5A, S254T, S309P, K320R, G337A, V413I counted along it

EC50 ([1]; read-out: EC50): 104 nM
%max [2]: 46.8%
SMILES: Cc1ccc(CNC(=O)c2sc3nc(C)c(Cl)c(C)c3c2N)cc1

SMILES: Cc1nc2sc(C(=O)NCc3ccncc3)c(N)c2c(C)c1Cl
fold change (FC) [3]: 106
Fu (Plasma): 1.7%
MRT [4]: 27.5 min
Activity (Rattus norvegicus [5]): Dose-dependent effect
EC50 [6]: > 30 µM
AUC [7]: 175 ng·h/mL
EC50 [8]: > 30 µM
Activity (Rattus norvegicus [9]): 47.9%
EC50 ([1]; read-out: EC50): 56 nM
half-life [10]: 17.5 min
AUC at 6 h [11]: 3880 ng·h/mL
%max [2]: 94.1%
Vd [12]: 2.6 L/kg
clearance [13]: 104 mL/min/kg
EC50 [14]: 176 nM
Drug uptake (Brain): 3410 ng/g
EC50 [15]: > 30 µM
inhibition [16]: 74%
EC50 [17]: > 30 µM
EC50 [18]: > 30 µM
Activity (Rattus norvegicus [19]): 53.7%
EC50 [20]: > 30 µM
EC50 [21]: > 30 µM
inhibition (Rattus norvegicus [22]): 64%
Activity (Rattus norvegicus [23]): 25.7%
Activity (Rattus norvegicus [24]): 18.7%
fold change (FC) [25]: 49.6
Activity (Rattus norvegicus [26]): 57.3%
EC50 [27]: > 30 µM

EC50 ([1]; read-out: EC50): 1750 nM
%max [2]: 33.6%
SMILES: Cc1nc2sc(C(=O)NCc3ccc(C(F)(F)F)cc3)c(N)c2c(C)c1Cl

EC50 ([1]; read-out: EC50): 108 nM
%max [2]: 81%
SMILES: Cc1nc2sc(C(=O)NCc3ccccc3)c(N)c2c(C)c1Cl

EC50 ([1]; read-out: EC50): 52 nM
%max [2]: 92.2%
SMILES: Cc1nc2sc(C(=O)NC3CCOC3)c(N)c2c(C)c1Cl (stereo not drawn)

EC50 ([1]; read-out: EC50): 418 nM
%max [2]: 85.7%
SMILES: COCCCNC(=O)c1sc2nc(C)c(Cl)c(C)c2c1N

EC50 ([1]; read-out: EC50): 61 nM
%max [2]: 75.8%
SMILES: Cc1cc(CNC(=O)c2sc3nc(C)c(Cl)c(C)c3c2N)ccn1

SMILES: Cc1cc(OCc2ccncc2)nc2sc(C(=O)NCc3cccc(F)c3F)c(N)c12
EC50 ([1]; read-out: EC50): 500 nM
EC50 [14]: 900 nM

EC50 ([1]; read-out: EC50): 124 nM
%max [2]: 79.5%
SMILES: Cc1nc2sc(C(=O)NCc3cccc(F)c3F)c(N)c2c(C)c1Cl

EC50 ([1]; read-out: EC50): > 10000 nM
%max [2]: 30.7%
SMILES: COc1ccc(NC(=O)c2sc3nc(C)c(Cl)c(C)c3c2N)cc1

EC50 ([1]; read-out: EC50): > 30000 nM
SMILES: Cc1nc2sc(C(=O)NCc3ccccc3N(C)C)c(N)c2c(C)c1Cl

EC50 ([1]; read-out: EC50): 160 nM
%max [2]: 42%
SMILES: Cc1nc2sc(C(=O)NCc3ccc(F)c(F)c3)c(N)c2c(C)c1Cl

EC50 ([1]; read-out: EC50): 289 nM
%max [2]: 78.6%
SMILES: Cc1nc2sc(C(=O)NC3CCOCC3)c(N)c2c(C)c1Cl

EC50 ([1]; read-out: pEC50 (converted)): > 30200 nM
SMILES: Cc1nc2sc(C(=O)NCCc3cccnc3)c(N)c2c(C)c1Cl

EC50 ([1]; read-out: EC50): 226 nM
%max [2]: 41.4%
SMILES: Cc1nc2sc(C(=O)NC3CCCCC3)c(N)c2c(C)c1Cl

EC50 ([1]; read-out: EC50): 356 nM
%max [2]: 74.1%
SMILES: Cc1nc2sc(C(=O)NCc3ccccn3)c(N)c2c(C)c1Cl

EC50 ([1]; read-out: EC50): 271 nM
%max [2]: 78.5%
SMILES: Cc1nc2sc(C(=O)NCc3ccncn3)c(N)c2c(C)c1Cl

EC50 ([1]; read-out: EC50): 669 nM
%max [2]: 57.3%
SMILES: Cc1nc2sc(C(=O)NC(C)c3cccnc3)c(N)c2c(C)c1Cl (stereo not drawn)

EC50 ([1]; read-out: EC50): 2010 nM
%max [2]: 69.9%
SMILES: Cc1nc2sc(C(=O)NC3COC3)c(N)c2c(C)c1Cl
